Laboratory results: US11395857B2, “Radiolabeled melanocortin 1 receptor-specific alpha-melanocyte-stimulating hormone analogues for imaging or therapy” (PROVINCIAL HEALTH SERVICES AUTHORITY, priority 2018, dated 2022)
Where two headings read alike, the source gives them in different places.

How the values were obtained:
B16F10 mouse melanoma = assay: Biodistribution of 177Lu-labeled αMSH analogues in mice bearing B16F10 mouse melanoma; assay type: in vivo, C57BL/6J mice; settings: C57BL/6J mice, B16F10 melanoma
Procedure: (§1) The B16-F10 mouse melanoma cells were cultured and inoculated in mice as described in Example 1.
(§2) For biodistribution studies, approximately 1-2 MBq of ^177Lu-labeled αMSH analogues via tail vein under anesthesia. At 1, 4, 24, and 120 h p.i., the mice were euthanized by CO2 inhalation. Organs/tissues were harvested and the radioactivity was measured as described in Example 1.

[1] = as above; assay type: in vivo, C57BL/6J mice; settings: mouse, iv, total radioactivity, C57BL/6J mice, B16F10 melanoma
Procedure: as §1, §2

Biodistribution, B16F10 tumour (B16F10 mouse melanoma; 1 h p.i.): 13.3 ± 3.34 % ID/g
Biodistribution, B16F10 tumour (B16F10 mouse melanoma; 4 h p.i.): 20.8 ± 5.37 % ID/g
Biodistribution, B16F10 tumour (B16F10 mouse melanoma; 24 h p.i.): 7.59 ± 1.70 % ID/g
Biodistribution, B16F10 tumour (B16F10 mouse melanoma; 120 h p.i.): 0.79 ± 0.39 % ID/g
tissue uptake at 1 h ([1]; male, seminal glands, 1 h p.i., read-out: Biodistribution, Seminal glands): 0.48 ± 0.13 %ID/g
tissue uptake at 4 h ([1]; male, seminal glands, 4 h p.i., read-out: Biodistribution, Seminal glands): 0.32 ± 0.15 %ID/g
tissue uptake at 24 h ([1]; male, seminal glands, 24 h p.i., read-out: Biodistribution, Seminal glands): 0.1 ± 0.04 %ID/g
tissue uptake at 120 h ([1]; male, seminal glands, 120 h p.i., read-out: Biodistribution, Seminal glands): 0.04 ± 0.02 %ID/g
tissue uptake at 1 h ([1]; male, testes, 1 h p.i., read-out: Biodistribution, Testes): 1.3 ± 0.4 %ID/g
tissue uptake at 4 h ([1]; male, testes, 4 h p.i., read-out: Biodistribution, Testes): 0.75 ± 0.26 %ID/g
tissue uptake at 24 h ([1]; male, testes, 24 h p.i., read-out: Biodistribution, Testes): 0.32 ± 0.17 %ID/g
tissue uptake at 120 h ([1]; male, testes, 120 h p.i., read-out: Biodistribution, Testes): 0.2 ± 0.11 %ID/g
tissue uptake at 1 h ([1]; adrenal glands, 1 h p.i., read-out: Biodistribution, Adrenal glands): 2.62 ± 1.48 %ID/g
tissue uptake at 4 h ([1]; adrenal glands, 4 h p.i., read-out: Biodistribution, Adrenal glands): 1.31 ± 0.56 %ID/g
tissue uptake at 24 h ([1]; adrenal glands, 24 h p.i., read-out: Biodistribution, Adrenal glands): 0.41 ± 0.35 %ID/g
tissue uptake at 120 h ([1]; adrenal glands, 120 h p.i., read-out: Biodistribution, Adrenal glands): 0.33 ± 0.23 %ID/g
tissue uptake at 1 h ([1]; blood, 1 h p.i., read-out: Biodistribution, Blood): 8.32 ± 2.74 %ID/g
tissue uptake at 4 h ([1]; blood, 4 h p.i., read-out: Biodistribution, Blood): 2.82 ± 1.17 %ID/g
tissue uptake at 24 h ([1]; blood, 24 h p.i., read-out: Biodistribution, Blood): 0.33 ± 0.57 %ID/g
tissue uptake at 120 h ([1]; blood, 120 h p.i., read-out: Biodistribution, Blood): 0.03 ± 0.04 %ID/g
tissue uptake at 1 h ([1]; bone, 1 h p.i., read-out: Biodistribution, Bone): 0.84 ± 0.19 %ID/g
tissue uptake at 4 h ([1]; bone, 4 h p.i., read-out: Biodistribution, Bone): 0.51 ± 0.11 %ID/g
tissue uptake at 24 h ([1]; bone, 24 h p.i., read-out: Biodistribution, Bone): 0.31 ± 0.08 %ID/g
tissue uptake at 120 h ([1]; bone, 120 h p.i., read-out: Biodistribution, Bone): 0.17 ± 0.07 %ID/g
tissue uptake at 1 h ([1]; brain, 1 h p.i., read-out: Biodistribution, Brain): 0.13 ± 0.03 %ID/g
tissue uptake at 4 h ([1]; brain, 4 h p.i., read-out: Biodistribution, Brain): 0.06 ± 0.02 %ID/g
tissue uptake at 24 h ([1]; brain, 24 h p.i., read-out: Biodistribution, Brain): 0.01 ± 0.02 %ID/g
tissue uptake at 120 h ([1]; brain, 120 h p.i., read-out: Biodistribution, Brain): 0.01 ± 0.01 %ID/g
tissue uptake at 1 h ([1]; fat, 1 h p.i., read-out: Biodistribution, Fat): 0.61 ± 0.23 %ID/g
tissue uptake at 4 h ([1]; fat, 4 h p.i., read-out: Biodistribution, Fat): 0.39 ± 0.12 %ID/g
tissue uptake at 24 h ([1]; fat, 24 h p.i., read-out: Biodistribution, Fat): 0.1 ± 0.13 %ID/g
tissue uptake at 120 h ([1]; fat, 120 h p.i., read-out: Biodistribution, Fat): 0.05 ± 0.05 %ID/g
tissue uptake at 1 h ([1]; heart, 1 h p.i., read-out: Biodistribution, Heart): 2.03 ± 0.68 %ID/g
tissue uptake at 4 h ([1]; heart, 4 h p.i., read-out: Biodistribution, Heart): 0.8 ± 0.32 %ID/g
tissue uptake at 24 h ([1]; heart, 24 h p.i., read-out: Biodistribution, Heart): 0.18 ± 0.17 %ID/g
tissue uptake at 120 h ([1]; heart, 120 h p.i., read-out: Biodistribution, Heart): 0.09 ± 0.04 %ID/g
tissue uptake at 1 h ([1]; intestine, 1 h p.i., read-out: Biodistribution, Intestine): 1.34 ± 0.28 %ID/g
tissue uptake at 4 h ([1]; intestine, 4 h p.i., read-out: Biodistribution, Intestine): 2.91 ± 4.94 %ID/g
tissue uptake at 24 h ([1]; intestine, 24 h p.i., read-out: Biodistribution, Intestine): 0.43 ± 0.32 %ID/g
tissue uptake at 120 h ([1]; intestine, 120 h p.i., read-out: Biodistribution, Intestine): 0.08 ± 0.07 %ID/g
tissue uptake at 1 h ([1]; kidneys, 1 h p.i., read-out: Biodistribution, Kidneys): 11.7 ± 5.52 %ID/g
tissue uptake at 4 h ([1]; kidneys, 4 h p.i., read-out: Biodistribution, Kidneys): 11.6 ± 5.03 %ID/g
tissue uptake at 24 h ([1]; kidneys, 24 h p.i., read-out: Biodistribution, Kidneys): 8.63 ± 6.4 %ID/g
tissue uptake at 120 h ([1]; kidneys, 120 h p.i., read-out: Biodistribution, Kidneys): 1.98 ± 0.72 %ID/g
tissue uptake at 1 h ([1]; liver, 1 h p.i., read-out: Biodistribution, Liver): 3.45 ± 0.31 %ID/g
tissue uptake at 4 h ([1]; liver, 4 h p.i., read-out: Biodistribution, Liver): 3.83 ± 0.28 %ID/g
tissue uptake at 24 h ([1]; liver, 24 h p.i., read-out: Biodistribution, Liver): 2.41 ± 0.34 %ID/g
tissue uptake at 120 h ([1]; liver, 120 h p.i., read-out: Biodistribution, Liver): 0.9 ± 0.12 %ID/g
tissue uptake at 1 h ([1]; lungs, 1 h p.i., read-out: Biodistribution, Lungs): 5.11 ± 2.81 %ID/g
tissue uptake at 4 h ([1]; lungs, 4 h p.i., read-out: Biodistribution, Lungs): 2.46 ± 0.54 %ID/g
tissue uptake at 24 h ([1]; lungs, 24 h p.i., read-out: Biodistribution, Lungs): 0.42 ± 0.34 %ID/g
tissue uptake at 120 h ([1]; lungs, 120 h p.i., read-out: Biodistribution, Lungs): 0.54 ± 0.87 %ID/g
tissue uptake at 1 h ([1]; muscle, 1 h p.i., read-out: Biodistribution, Muscle): 0.79 ± 0.22 %ID/g
tissue uptake at 4 h ([1]; muscle, 4 h p.i., read-out: Biodistribution, Muscle): 0.39 ± 0.1 %ID/g
tissue uptake at 24 h ([1]; muscle, 24 h p.i., read-out: Biodistribution, Muscle): 0.06 ± 0.05 %ID/g
tissue uptake at 120 h ([1]; muscle, 120 h p.i., read-out: Biodistribution, Muscle): 0.03 ± 0.02 %ID/g
tissue uptake at 1 h ([1]; pancreas, 1 h p.i., read-out: Biodistribution, Pancreas): 1.14 ± 0.32 %ID/g
tissue uptake at 4 h ([1]; pancreas, 4 h p.i., read-out: Biodistribution, Pancreas): 0.52 ± 0.27 %ID/g
tissue uptake at 24 h ([1]; pancreas, 24 h p.i., read-out: Biodistribution, Pancreas): 0.17 ± 0.19 %ID/g
tissue uptake at 120 h ([1]; pancreas, 120 h p.i., read-out: Biodistribution, Pancreas): 0.09 ± 0.05 %ID/g
tissue uptake at 1 h ([1]; spleen, 1 h p.i., read-out: Biodistribution, Spleen): 2.1 ± 1.03 %ID/g
tissue uptake at 4 h ([1]; spleen, 4 h p.i., read-out: Biodistribution, Spleen): 1.46 ± 0.67 %ID/g
tissue uptake at 24 h ([1]; spleen, 24 h p.i., read-out: Biodistribution, Spleen): 1.05 ± 0.45 %ID/g
tissue uptake at 120 h ([1]; spleen, 120 h p.i., read-out: Biodistribution, Spleen): 0.65 ± 0.34 %ID/g
tissue uptake at 1 h ([1]; stomach, 1 h p.i., read-out: Biodistribution, Stomach): 0.89 ± 0.5 %ID/g
tissue uptake at 4 h ([1]; stomach, 4 h p.i., read-out: Biodistribution, Stomach): 1.65 ± 2.22 %ID/g
tissue uptake at 24 h ([1]; stomach, 24 h p.i., read-out: Biodistribution, Stomach): 1.17 ± 0.77 %ID/g
tissue uptake at 120 h ([1]; stomach, 120 h p.i., read-out: Biodistribution, Stomach): 0.19 ± 0.21 %ID/g
tissue uptake at 1 h ([1]; thyroid, 1 h p.i., read-out: Biodistribution, Thyroid): 3.41 ± 0.51 %ID/g
tissue uptake at 4 h ([1]; thyroid, 4 h p.i., read-out: Biodistribution, Thyroid): 3.86 ± 0.39 %ID/g
tissue uptake at 24 h ([1]; thyroid, 24 h p.i., read-out: Biodistribution, Thyroid): 4.03 ± 1.33 %ID/g
tissue uptake at 120 h ([1]; thyroid, 120 h p.i., read-out: Biodistribution, Thyroid): 0.86 ± 0.31 %ID/g
tissue to tissue ratio at 1 h ([1]; tumour/blood, 1 h p.i., read-out: Tumour/blood): 1.82 ± 0.82
tissue to tissue ratio at 4 h ([1]; tumour/blood, 4 h p.i., read-out: Tumour/blood): 8.59 ± 4.19
tissue to tissue ratio at 24 h ([1]; tumour/blood, 24 h p.i., read-out: Tumour/blood): 87.6 ± 47.8
tissue to tissue ratio at 120 h ([1]; tumour/blood, 120 h p.i., read-out: Tumour/blood): 52.9 ± 41.3
tissue to tissue ratio at 1 h ([1]; tumour/kidney, 1 h p.i., read-out: Tumour/kidney): 1.41 ± 0.71
tissue to tissue ratio at 4 h ([1]; tumour/kidney, 4 h p.i., read-out: Tumour/kidney): 2.05 ± 0.86
tissue to tissue ratio at 24 h ([1]; tumour/kidney, 24 h p.i., read-out: Tumour/kidney): 1.14 ± 0.5
tissue to tissue ratio at 120 h ([1]; tumour/kidney, 120 h p.i., read-out: Tumour/kidney): 0.42 ± 0.18
tissue to tissue ratio at 1 h ([1]; tumour/muscle, 1 h p.i., read-out: Tumour/muscle): 18.7 ± 8.13
tissue to tissue ratio at 4 h ([1]; tumour/muscle, 4 h p.i., read-out: Tumour/muscle): 57.7 ± 22.4
tissue to tissue ratio at 24 h ([1]; tumour/muscle, 24 h p.i., read-out: Tumour/muscle): 167 ± 88.7
tissue to tissue ratio at 120 h ([1]; tumour/muscle, 120 h p.i., read-out: Tumour/muscle): 38.9 ± 24
excreta dose per gram or mL at 1 h ([1]; urine, 1 h p.i.): 87.9 ± 48.2 %ID/g
excreta dose per gram or mL at 4 h ([1]; urine, 4 h p.i.): 113 ± 29.4 %ID/g
excreta dose per gram or mL at 24 h ([1]; urine, 24 h p.i.): 6.11 ± 1.66 %ID/g
excreta dose per gram or mL at 120 h ([1]; urine, 120 h p.i.): 1.21 ± 0.21 %ID/g
Compound: CCCC[C@H](NC(=O)CN1CCC(NC(=O)[C@H](CCCCNC(=O)CN2CCN(CC(=O)O)CCN(CC(=O)O)CCN(CC(=O)O)CC2)NC(=O)[C@H](CCC(=O)O)NC(=O)CCCc2ccc(I)cc2)CC1)C(=O)N[C@H]1CC(=O)NCCCC[C@@H](C(N)=O)NC(=O)[C@H](Cc2c[nH]c3ccccc23)NC(=O)[C@H](CCCNC(=N)N)NC(=O)[C@@H](Cc2ccccc2)NC(=O)[C@H](Cc2c[nH]cn2)NC1=O [^177Lu-labeled CCZ01082, metal not drawn]
